Test results from PMC4890114, “Intracellular quantitative detection of human thymidylate synthase engagement with an unconventional inhibitor using tetracysteine-diarsenical-probe technology” (Scientific Reports, 2016).

Assays:
[1] = target: T1, human thymidylate synthase (hTS) (Homo sapiens, UniProt P04818); assay: Kinetic characterization of the hTS enzyme; format: biochemical; conditions: mTHF 3.50-69.20 μM; enzyme 0.30 μM, dUMP 120 μM; 340 nm; triplicate
T1 construct: inferred from the nickel-resin purification and the pQE80L vector; made in house; host or cells: E. coli DH5α
Protocol: The enzyme reaction was started when dUMP was added to the reaction mixture. […] For each single determination assay, the experimental data were analysed in triplicate with a p-value < 0.005 representing statistical significance.

[2] = system: TC-hTS-transfected HEK293T cells; assay: FlAsH-EDT2 staining and confocal imaging of transfected HEK293T cells; format: cell-based, human; conditions: HEK293T transfected with empty vector, hTS or TC-hTS; 0.5 μM FlAsH, 30 min; confocal microscopy
Protocol: HEK293T cells (3 × 10^4) were plated into 6-well microslides pre-coated with 0.01% (w/v) poly-L lysine and transfected the following day with 2.5 μg of DNA using Lipofectamine™ LTX Transfection Reagent. After 24 h, cells were labelled for 30 min with 12.5 μM 1,2-ethanedithiol (EDT) and 0.5 μM FlAsH (Life Technologies) in HBSS and then washed twice for 15 min in 150 μM 2,3-dimercaptopropanol (BAL) in HBSS. Cells were fixed with 4% (w/v) paraformaldehyde for 15 min at RT and then imaged using an inverted Leica TCS SP2 confocal microscope interfaced with an Ar Laser (488 nm/20 mW), equipped with AOBS and operated at a magnification of 63x (HCX PL APO 63x/1.40 - oil - Lambda blue correction). Images were processed using LCS Lite (Leica Microsystems, Heidelberg).

[3] = complexes of FlAsH with some dodecapeptides including CCPGCC; 'as low as'; read-out: apparent dissociation constant; cited from earlier work
Excerpt: According to a strategy devised by Tsien and co-workers, some fluorogenic biarsenicals can covalently bind proteins that contain a tetracysteine motif, CCXXCC, thereby strongly enhancing their emission quantum yield and making such tetracysteine-containing proteins observable within cells. The CCPGCC sequence features a hairpin conformation that optimizes the covalent binding of each As atom of the probe to the S atoms of two cysteine units. Apparent dissociation constants as low as 4 pM have been measured for complexes formed between the fluorescein diarsenical probe FlAsH and some do ...

[4] = system: TC-hTS in HEK293T cell lysates; assay: FlAsH emission in cell lysates; format: binding, human; conditions: excitation 480 nm
Protocol: HEK293T cells (10 × 10^6) were plated into 150-mm dishes (6 dishes were used for each condition) and transfected the following day with 25 μg of pcDNA-TS or pcDNA-TS-TC using Lipofectamine™ LTX Transfection Reagent; cells were collected 48 h post-transfection in 15-ml tubes and washed twice with 4 °C cold PBS for spectrofluorometric analysis. […]
UV-visible absorption measurements were performed with a Cary 100 Varian spectrophotometer. Fluorescence measurements were carried out with a Horiba Fluoromax-3 spectrofluorometer. […] The fluorescein, hTS dimer and LR-h concentrations were determined spectrophotometrically using the following extinction coefficients: εmax (fluorescein) = 79000 M^−1 cm^−1, ε280 (hTS) = 89000 M^−1 cm^−1, ε280 (fluorescein) = 30000 M^−1 cm^−1,[28] and ε404 (LR-h) = 35000 M^−1 cm^−1, determined ad hoc for this work. The h (420 nm) and F (522 nm) emissions were measured by excitation at 370 or 380 nm. The F emission values were analysed according to the Scatchard method as functions of the LR-h concentration. The amount measured before LR-h addition and due to the direct excitation of F at 370 nm was subtracted from the intensity measured at 522 nm. […] Similar experiments were performed in 800 μl of the lysate of 60 × 10^6 HEK cells to which hTS-F was added to a concentration of 2.5 μM (determined spectrophotometrically). […]

Nc1nc2c(c(=O)[nH]1)N1CN(c3ccc(C(=O)N[C@@H](CCC(=O)O)C(=O)O)cc3)CC1CN2 (some centres unmarked) [mTHF, 5,10-methylenetetrahydrofolate]
Km [1]: 5.87 µM

O=C(O)c1ccccc1-c1c2ccc(=O)c([As]3SCCS3)c-2oc2c([As]3SCCS3)c(O)ccc12 [FlAsH]
green fluorescence enhancement [2]: green fluorescence enhancement only in TC-hTS-transfected cells
Kd [3]: ≥ 4 pM
FlAsH emission, TC-hTS cell lysate versus hTS cell lysate ([4]; after fourth addition, total FlAsH 0.6 μM): 2.5 times
duration of FlAsH emission increase after addition of the probe ([4]; printed for the hTS-expressing cells): approximately forty
